{
  "source": "ChEMBL document CHEMBL5465560",
  "about": "“Selectivity Literature for EUbOPEN Chemogenomic Library” (2024)",
  "key": {"[1]": {"target": "Protein-tyrosine kinase 6 (Homo sapiens, UniProt Q13882)", "sequence (Q13882 whole entry, looked up)": "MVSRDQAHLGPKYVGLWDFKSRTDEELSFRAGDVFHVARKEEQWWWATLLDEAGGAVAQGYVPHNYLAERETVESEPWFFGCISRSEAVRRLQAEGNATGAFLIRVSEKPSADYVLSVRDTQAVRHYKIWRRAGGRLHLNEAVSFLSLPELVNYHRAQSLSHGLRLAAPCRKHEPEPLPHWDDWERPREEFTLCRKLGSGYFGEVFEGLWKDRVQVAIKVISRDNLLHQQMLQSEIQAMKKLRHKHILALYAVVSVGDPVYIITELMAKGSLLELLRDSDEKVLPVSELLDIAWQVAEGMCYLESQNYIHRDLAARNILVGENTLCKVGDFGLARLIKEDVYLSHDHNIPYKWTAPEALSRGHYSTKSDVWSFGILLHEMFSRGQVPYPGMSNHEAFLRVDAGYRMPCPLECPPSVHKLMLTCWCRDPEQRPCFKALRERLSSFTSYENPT", "test": "Selectivity interaction (SelectScreen profiling (Invitrogen)) EUB0000607a PTK6", "conditions": "at 2 µM"}, "[2]": {"target": "Aurora kinase B (Homo sapiens, UniProt Q96GD4)", "sequence (Q96GD4 whole entry)": "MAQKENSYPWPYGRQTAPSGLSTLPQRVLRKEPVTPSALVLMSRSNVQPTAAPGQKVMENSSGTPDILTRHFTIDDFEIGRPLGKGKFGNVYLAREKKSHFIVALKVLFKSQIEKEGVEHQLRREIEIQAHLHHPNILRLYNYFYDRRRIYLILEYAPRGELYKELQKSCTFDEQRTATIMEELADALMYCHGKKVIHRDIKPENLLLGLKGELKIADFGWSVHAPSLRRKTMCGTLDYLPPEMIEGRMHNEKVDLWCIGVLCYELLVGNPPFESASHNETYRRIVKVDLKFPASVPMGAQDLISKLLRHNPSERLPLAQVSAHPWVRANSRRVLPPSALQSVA", "test": "Selectivity interaction (Panel of kinases, GPCRs, ion channels and transporters (enzymatic assay)) EUB0000266bCl AURKB"}, "[3]": {"target": "Glycogen synthase kinase-3 alpha (Homo sapiens, UniProt P49840)", "sequence (P49840 2-483 limits assumed)": "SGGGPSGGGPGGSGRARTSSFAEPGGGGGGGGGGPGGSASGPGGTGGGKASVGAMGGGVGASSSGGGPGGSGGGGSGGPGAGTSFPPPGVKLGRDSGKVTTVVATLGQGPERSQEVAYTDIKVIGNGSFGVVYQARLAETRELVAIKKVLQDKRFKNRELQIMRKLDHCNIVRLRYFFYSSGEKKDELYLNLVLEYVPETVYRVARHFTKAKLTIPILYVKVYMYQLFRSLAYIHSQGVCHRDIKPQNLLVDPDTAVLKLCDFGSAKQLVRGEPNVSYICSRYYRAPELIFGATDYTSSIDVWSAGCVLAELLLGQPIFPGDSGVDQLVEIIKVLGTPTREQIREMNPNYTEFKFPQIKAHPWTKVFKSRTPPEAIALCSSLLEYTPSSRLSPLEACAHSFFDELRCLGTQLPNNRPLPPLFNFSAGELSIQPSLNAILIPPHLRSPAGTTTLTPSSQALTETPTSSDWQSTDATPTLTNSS", "test": "Selectivity interaction (ActivX KiNativ screen (kinase selectivity in THP-1 cell lysates)) EUB0000639a GSK3A", "format": "subcellular", "conditions": "lysate"}, "[4]": {"target": "T1, Aurora kinase C (Homo sapiens) (UniProt Q9UQB9)", "T1 sequence (whole entry)": "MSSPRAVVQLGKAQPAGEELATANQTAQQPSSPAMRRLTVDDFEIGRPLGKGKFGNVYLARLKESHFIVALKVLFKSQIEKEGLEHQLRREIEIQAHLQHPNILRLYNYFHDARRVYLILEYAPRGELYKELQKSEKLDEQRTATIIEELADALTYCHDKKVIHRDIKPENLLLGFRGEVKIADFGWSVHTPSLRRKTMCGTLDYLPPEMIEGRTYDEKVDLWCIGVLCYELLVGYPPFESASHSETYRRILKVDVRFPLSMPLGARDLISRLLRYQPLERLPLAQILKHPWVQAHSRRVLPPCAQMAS", "test": "Selectivity interaction (KinomeScan (DiscoverX)) EUB0000655a AURKC", "conditions": "at 10 µM"}, "[5]": {"target": "Serine/threonine-protein kinase 32B (Homo sapiens) (UniProt Q9NY57)", "sequence (Q9NY57 whole entry)": "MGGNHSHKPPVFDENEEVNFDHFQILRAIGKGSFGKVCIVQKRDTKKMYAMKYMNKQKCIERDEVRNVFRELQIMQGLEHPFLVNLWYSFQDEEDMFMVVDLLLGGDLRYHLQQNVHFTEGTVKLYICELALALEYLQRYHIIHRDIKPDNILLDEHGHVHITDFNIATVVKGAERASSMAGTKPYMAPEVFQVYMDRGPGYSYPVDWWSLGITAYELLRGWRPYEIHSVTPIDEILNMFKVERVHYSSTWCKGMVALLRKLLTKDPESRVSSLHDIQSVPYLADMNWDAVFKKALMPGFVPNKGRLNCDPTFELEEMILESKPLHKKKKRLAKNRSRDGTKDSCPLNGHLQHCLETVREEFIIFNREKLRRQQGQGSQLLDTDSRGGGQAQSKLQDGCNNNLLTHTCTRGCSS", "test": "Selectivity interaction (KinomeScan (DiscoverX)) EUB0000655a STK32B", "conditions": "at 10 µM"}, "[6]": {"target": "T2, NUAK family SNF1-like kinase 2 (Homo sapiens) (UniProt Q9H093)", "T2 sequence (whole entry)": "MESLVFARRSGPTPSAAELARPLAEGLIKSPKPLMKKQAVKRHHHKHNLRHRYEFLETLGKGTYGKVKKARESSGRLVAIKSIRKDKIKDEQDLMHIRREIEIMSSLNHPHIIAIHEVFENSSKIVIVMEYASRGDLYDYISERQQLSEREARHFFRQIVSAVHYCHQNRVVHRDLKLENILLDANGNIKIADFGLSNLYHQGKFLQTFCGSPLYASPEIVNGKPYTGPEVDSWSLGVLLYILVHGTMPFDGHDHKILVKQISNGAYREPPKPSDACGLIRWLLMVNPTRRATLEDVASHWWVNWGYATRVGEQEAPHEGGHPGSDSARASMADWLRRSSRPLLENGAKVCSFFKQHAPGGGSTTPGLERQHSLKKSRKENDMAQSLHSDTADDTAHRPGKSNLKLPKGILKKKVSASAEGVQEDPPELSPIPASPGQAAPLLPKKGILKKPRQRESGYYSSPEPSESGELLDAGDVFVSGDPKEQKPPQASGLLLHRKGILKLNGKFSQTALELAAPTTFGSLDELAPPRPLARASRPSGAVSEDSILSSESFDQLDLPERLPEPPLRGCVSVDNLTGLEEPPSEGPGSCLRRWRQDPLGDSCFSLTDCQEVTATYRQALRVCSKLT", "conditions": "at 10 µM"}, "[7]": {"target": "T3, Serine/threonine-protein kinase TAO2 (Homo sapiens) (UniProt Q9UL54)", "T3 sequence (whole entry)": "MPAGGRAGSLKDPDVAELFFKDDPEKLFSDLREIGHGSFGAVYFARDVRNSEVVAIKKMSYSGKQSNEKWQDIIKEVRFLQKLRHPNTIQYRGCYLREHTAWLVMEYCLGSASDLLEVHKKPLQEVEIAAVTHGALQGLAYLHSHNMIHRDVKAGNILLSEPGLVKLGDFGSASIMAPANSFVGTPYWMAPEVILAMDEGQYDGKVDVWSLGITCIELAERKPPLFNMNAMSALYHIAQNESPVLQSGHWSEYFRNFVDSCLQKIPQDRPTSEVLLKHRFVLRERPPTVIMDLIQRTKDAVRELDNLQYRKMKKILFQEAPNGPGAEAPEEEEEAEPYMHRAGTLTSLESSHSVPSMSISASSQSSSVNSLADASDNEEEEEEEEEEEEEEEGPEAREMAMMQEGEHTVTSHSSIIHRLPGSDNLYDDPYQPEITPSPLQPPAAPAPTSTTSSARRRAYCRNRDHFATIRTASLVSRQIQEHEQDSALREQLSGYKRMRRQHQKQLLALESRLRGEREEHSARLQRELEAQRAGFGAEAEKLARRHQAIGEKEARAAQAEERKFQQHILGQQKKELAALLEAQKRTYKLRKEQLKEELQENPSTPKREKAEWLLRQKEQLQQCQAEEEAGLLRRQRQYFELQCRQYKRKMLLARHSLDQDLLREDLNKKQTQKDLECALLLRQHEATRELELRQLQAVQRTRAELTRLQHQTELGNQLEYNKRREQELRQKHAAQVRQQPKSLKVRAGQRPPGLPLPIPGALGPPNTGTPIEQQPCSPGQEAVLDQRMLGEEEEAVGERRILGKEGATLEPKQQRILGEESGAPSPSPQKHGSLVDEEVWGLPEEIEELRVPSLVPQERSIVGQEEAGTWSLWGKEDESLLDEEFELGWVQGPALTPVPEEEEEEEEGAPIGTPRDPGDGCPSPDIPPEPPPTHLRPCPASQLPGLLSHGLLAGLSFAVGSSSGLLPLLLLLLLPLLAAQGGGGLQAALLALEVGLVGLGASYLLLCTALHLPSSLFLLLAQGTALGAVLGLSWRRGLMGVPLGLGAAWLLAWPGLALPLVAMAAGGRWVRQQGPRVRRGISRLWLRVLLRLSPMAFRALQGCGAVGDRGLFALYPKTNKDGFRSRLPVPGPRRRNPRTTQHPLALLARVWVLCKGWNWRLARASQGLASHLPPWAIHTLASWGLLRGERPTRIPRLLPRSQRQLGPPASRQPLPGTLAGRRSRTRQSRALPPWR", "test": "Selectivity interaction (Ambit KINOMEscan and KiNATiv profiling in Jurkat cells) EUB0000090b TAOK2", "format": "cell-based", "conditions": "at 1 µM"}},
  "data": [
    {"smiles": "CNC(=O)Nc1ccc(-c2nc(N3CC4CCC(C3)O4)c3cnn(C4CCC5(CC4)OCCO5)c3n2)cc1", "values": [
      {"measurement": "% of inhibition", "setting": "[1]", "value": 8, "unit": "%"}
    ]},
    {"smiles": "CCn1c(-c2nc3cc(C(=O)N4CCCC(N)C4)ccc3n2C)cc2ccccc21", "note": "(stereo unspecified)", "values": [
      {"measurement": "pXC50", "setting": "[2]", "value": "< 4.5", "unit": "M"}
    ]},
    {"smiles": "CC[C@@H]1[C@H](F)C(=O)N[C@@H]1COc1nccc2cc(C(N)=O)c(OC)cc12", "note": "[ZIMLOVISERTIB]", "values": [
      {"measurement": "% of inhibition", "setting": "[3]; at 0.01 µM", "value": -6, "unit": "%"},
      {"measurement": "% of inhibition", "setting": "[3]; at 0.04 µM", "value": -6.7, "unit": "%"},
      {"measurement": "% of inhibition", "setting": "[3]; at 0.2 µM", "value": -1.9, "unit": "%"},
      {"measurement": "% of inhibition", "setting": "[3]; at 1 µM", "value": 8.1, "unit": "%"},
      {"measurement": "% of inhibition", "setting": "[3]; at 5 µM", "value": 18.5, "unit": "%"}
    ]},
    {"smiles": "CN(C)CCOc1ccc(-c2nc(-c3ccncc3)c(-c3ccc4c(c3)CC/C4=N\\O)[nH]2)cc1", "values": [
      {"measurement": "% of control", "setting": "[4]", "value": 100, "unit": "%"},
      {"measurement": "% of control", "setting": "[5]", "value": 85, "unit": "%"}
    ]},
    {"smiles": "CCN(CC)CCCCNc1ncc2cc(-c3cc(OC)cc(OC)c3)c(NC(=O)NC(C)(C)C)nc2n1", "values": [
      {"measurement": "% of control", "setting": "[6]", "value": 100, "unit": "%"}
    ]},
    {"smiles": "CN(C)C/C=C/C(=O)Nc1ccc(C(=O)N2CCCC(Nc3ncc(Cl)c(-c4c[nH]c5ccccc45)n3)C2)cc1", "note": "(stereo unspecified)", "values": [
      {"measurement": "% of control", "setting": "[7]", "value": 50, "unit": "%"}
    ]}
  ]
}
